Columns and labels:
[1] = stability of cDLI under conjugation conditions; type: physicochemical; conditions: pH 8.5, 3 and 10 equivalents, 3 hours and overnight; LC/MS
proteases = assay: protease cleavage of cDAC made with cDLI; type: in vitro ADME; conditions: presence of proteases; cDAC of cDLI-6 variants
[2] = cDLI stability in whole blood; type: in vitro ADME
[3] = reductive cleavage / release of lenalidomide in a model study; type: in vitro ADME; conditions: reduction
Description: The nitro group of para-nitrobenzyloxymethyl lenalidomide cDLI-7 was reduced to amine in a model study. […] The disulfide group of para-nitropyridyl disulfidemethyl lenalidomide cDLI-8 was reduced in a model study.

[4] = release of lenalidomide and hydrolysis of sulfonyl-thio cDLI; type: in vitro ADME; conditions: with and without methyl adjacent to the glutarimide nitrogen
KPL-4 cells (HER2+) = assay: cell proliferation assay (CellTiter-Glo), KPL-4; type: cell-based; conditions: KPL4, 120 h; cereblon degrader compound, 5 days; read-out: IC50 anti-proliferative
Description: (§1) The CellTiter-Glo® Luminescent Cell Viability Assay is a commercially available (Promega Corp., Madison, WI), homogeneous assay method based on the recombinant expression of Coleoptera luciferase (U.S. Pat. Nos. 5,583,024; 5,674,713; 5,700,670). This cell proliferation assay determines the number of viable cells in culture based on quantitation of the ATP present, an indicator of metabolically active cells (Crouch et al (1993) J. Immunol. Meth. 160:81-88; U.S. Pat. No. 6,602,677). The CellTiter-Glo® Assay was conducted in 96 well format, making it amenable to automated high-throughput screening (HTS) (Cree et al (1995) AntiCancer Drugs 6:398-404). […] Data can be recorded by luminometer or CCD camera imaging device. The luminescence output is expressed as relative light units (RLU). […]
(§2) Efficacy of the cDAC was measured by a cell proliferation assay employing the following protocol ([…] GLO™ Luminescent Cell Viability Assay, Promega Corp. Technical Bulletin TB288; Mendoza et al. (2002) Cancer Res. 62:5485-5488): • 1. […] The plate was incubated at room temperature for 5 minutes to stabilize the luminescence signal. • 8. Luminescence was recorded and reported in graphs as % activity where RLU (relative luminescence units) was normalized to controls (no antibody control minus no cell control). […]

SK-BR-3 cells (HER2+) = assay: cell proliferation assay (CellTiter-Glo), SK-BR-3; type: cell-based; conditions: Homo sapiens, SK-BR-3, 120 h; cereblon degrader compound, 5 days; read-out: IC50 anti-proliferative
Description: as §1, §2

## CC(C)(CSS(C)(=O)=O)OC(=O)OCN1C(=O)CCC(N2Cc3ccccc3C2=O)C1=O (stereo not drawn) [cDLI-10, S-(2-((((2,6-dioxo-3-(1-oxoisoindolin-2-yl)piperidin-1-yl)methoxy)carbonyl)oxy)-2-methylpropyl) methanesulfonothioate]
[1]
  stability under conjugation conditions (in words): Hydrolysis of the carbonate bond was observed

## 6-(2,5-dioxo-2,5-dihydro-1H-pyrrol-1-yl)-N-((2S)-1-(((2S)-1-((4-((2,6-dioxo-3-(1-oxoisoindolin-2-yl)piperidin-1-yl)methyl)phenyl)amino)-1-oxopropan-2-yl)amino)-3-methyl-1-oxobutan-2-yl)hexanamide [cDLI-6]
proteases
  cleavage by proteases (in words): failed to cleave in the presence of proteases

## CC(C)(C)OC(=O)Nc1cccc2c1CN(C1CCC(=O)N(C(=O)OCC(C)(C)SS(C)(=O)=O)C1=O)C2=O (stereo not drawn) [cDLI-1, 2-methyl-2-((methylsulfonyl)thio)propyl 3-(4-((tert-butoxycarbonyl)amino)-1-oxoisoindolin-2-yl)-2,6-dioxopiperidine-1-carboxylate]
[1]
  stability under conjugation conditions (in words): too unstable under these conditions for conjugation

## CC(CN1C(=O)C=CC1=O)SN1C(=O)CCC(N2Cc3ccccc3C2=O)C1=O (stereo not drawn) [cDLI-5, 1-((1-(2,5-dioxo-2,5-dihydro-1H-pyrrol-1-yl)propan-2-yl)thio)-3-(1-oxoisoindolin-2-yl)piperidine-2,6-dione]
[2]
  stability in whole blood (in words): not stable in whole blood

## O=C1CCC(N2Cc3ccccc3C2=O)C(=O)N1COCc1ccc([N+](=O)[O-])cc1 (stereo not drawn) [cDLI-7, 1-(((4-nitrobenzyl)oxy)methyl)-3-(1-oxoisoindolin-2-yl)piperidine-2,6-dione]
[3]
  cleavage to release lenalidomide (in words): No cleavage of the para-aminobenzyloxy group was observed

## O=C1CCC(N2Cc3ccccc3C2=O)C(=O)N1CSSc1ccc([N+](=O)[O-])cn1 (stereo not drawn) [cDLI-8, 1-(((5-nitropyridin-2-yl)disulfaneyl)methyl)-3-(1-oxoisoindolin-2-yl)piperidine-2,6-dione]
[3]
  cleavage to release lenalidomide (in words): No cleavage of the disulfide group was observed

## O=C1C=CC(=O)N1CCSN1C(=O)CCC(N2Cc3ccccc3C2=O)C1=O (stereo not drawn) [cDLI-4, 1-((2-(2,5-dioxo-2,5-dihydro-1H-pyrrol-1-yl)ethyl)thio)-3-(1-oxoisoindolin-2-yl)piperidine-2,6-dione]
[2]
  stability in whole blood (in words): not stable in whole blood

## CC(OC(=O)OCN1C(=O)CCC(N2Cc3ccccc3C2=O)C1=O)C(C)SS(C)(=O)=O (stereo not drawn) [cDLI-9, S-(3-((((2,6-dioxo-3-(1-oxoisoindolin-2-yl)piperidin-1-yl)methoxy)carbonyl)oxy)butan-2-yl)methanesulfonothioate]
[1]
  stability under conjugation conditions (in words): Hydrolysis of the carbonate bond was observed
[4]
  release of lenalidomide (in words): cleaved to release detectable lenalidomide
  stability (in words): not stable, generating hydrolysis products

## Cn1cc2c3c(c[nH]c3c1=O)CN(c1ncc(F)cc1F)c1cc(C(=O)NCCCCCCCNc3cccc4c3CN(C3CCC(=O)NC3=O)C4=O)c(CS(C)(=O)=O)cc1-2 (stereo not drawn) [cD-5, 4-(3,5-difluoropyridin-2-yl)-N-(7-((2-(2,6-dioxopiperidin-3-yl)-1-oxoisoindolin-4-yl)amino)heptyl)-10-methyl-7-((methylsulfonyl)methyl)-11-oxo-3,4,10,11-tetrahydro-1H-1,4,10-triazadibenzo[cd,f]azulene-6-carboxamide]
KPL-4 cells (HER2+)
  IC50: 650 pM
SK-BR-3 cells (HER2+)
  IC50: 410 pM

Reference: US20260355331A1, “CEREBLON DEGRADER CONJUGATES, AND USES THEREOF” (GENENTECH, INC., priority 2022, published 2026)
